Test results from US20210154162A1, “DRUG AND PHARMACEUTICAL COMPOSITION CONTAINING TRANSPORT PROTEIN INHIBITOR, AND USE” (Institute of Basic Medical Sciences Chinese Academy of …, priority 2018, published 2021).

Experiments:
[1] = tested on: PD-1; experiment: ID8 ovarian cancer and H22 hepatocarcinoma ascites peritoneal tumor models; format: in vivo, mouse; settings: Kyn i.p., 6 days
Method: (10) C57BL/6 mice were intraperitoneally injected with 1×10^6 ID8 ovarian cancer cells. After 10 days, mice were intraperitoneally administered with PBS, Kyn, DMF or Kyn+DMF for 6 days. CD8^+ T cells from ascites were isolated and PD-1 expression was determined by flow cytometry (n=5).

[2] = tested on: AhR; experiment: AhR translocation in human peripheral CD8+ T cells; format: cell-based; settings: resting and activated peripheral CD8+ T cells from breast and lung cancer patients, Kyn treatment
[3] = tested on: CD8^+ T cells; experiment: Kyn i.p. injection in WT or AhR-/- C57BL/6 mice, analysis of CD8+ T cells; format: in vivo, mouse
Method: (1) WT C57BL/6 mice were i.p. injected with PBS or Kyn (50 μg, once per day) for 5 days, and CD8^+ T cells were sorted by FACS from the spleen and mesenteric lymph nodes. PD-1 expression was determined by flow cytometry (FIG. 6A). Some CD8^+ T cells from spleen were immunostained with AhR and DAPI (FIG. 6B), and the mRNA expression of PAT4 and SLC7A8 was determined by real-time PCR (FIG. 6C). […] Bar, […]. (2) The experimental steps were the same as those of step (1), except that AhR^−/− mice were used. (3) PD-1 expression in resting or anti-CD3/CD28 bead-activated splenic CD8^+ T cells was determined, wherein said cells were isolated from AhR^−/− C57BL/6 mice injected with PBS or Kyn for 5 days.

[4] = tested on: AhR; experiment: AhR localisation and expression in CD8+ T cells (confocal microscopy, western blot); format: cell-based, mouse; settings: 48 h
Method: (1) CD8^+ T cells isolated from spleen were stimulated with 200 μM Kyn or Kyn+anti-CD3/CD28 beads for 48 h. CD8^+ T cells were fixed, stained with an anti-AhR antibody and imaged by confocal microscopy. Bar, […]. (2) The experimental steps were the same as those of step (1), except that the cytoplasmic and nuclear protein fractions were seperated prior to the western blot analysis of AhR. The intensity relative to that in the resting/Kyn group was calculated. (3) Western blot analysis of AhR expression in both resting CD8^+ T cells and anti-CD3/CD28 bead-activated CD8^+ T cells treated with PBS or Kyn (200 μM) for 48 h was carried out. AhR ratio of Nuc/Cyt was calculated relative to that in the Kyn (−) group.

[5] = tested on: PAT4 and SLC7A8; experiment: Effect of Kyn on the expression of PAT4 and SLC7A8 in human peripheral blood CD8+ T cells (fluorescence quantitative PCR); format: cell-based; settings: activated peripheral blood CD8+ T cells of breast cancer patients, 200 μM Kyn, 48 h
Method: Mononuclear cells were isolated and obtained from the peripheral whole blood of breast cancer patients by using Ficoll. CD8^+ T cells were sorted by magnetic beads, and seeded into a U-shaped bottom 96-well plate (100000 cells/well) while anti-CD3/CD28 magnetic beads were added to activate T cells. The culture medium was RPMI-1640 added with 10 ng/mL human IL-2. Cells were grouped and treated with drugs as follows. Control group 1 (PBS): culture medium+PBS; Experimental group 2 (Kyn): culture medium+200 μM Kyn; RNA was collected from cells in each group after 48 h, and the expression of PAT4 and SLC7A8 was determined by fluorescence quantitative PCR.

[6] = tested on: CD8^+ T cells; experiment: Essential amino acids in the cytosol of activated CD8+ T cells (LC-QE-MS); format: cell-based; settings: 48-hour Kyn treatment
Source text: Regarding the antiport function in many transport systems, the inventors additionally analyzed the influence of SLC7A8 and PAT4 on the transport of other essential amino acids. After 48-hour treatment with or without Kyn, anti-CD3/CD28 bead-activated CD8^+ T cells were used to analyze essential amino acids in the cytosol by LC-QE-MS.

[7] = tested on: PD-1; experiment: Effect of SAR and BCH on PD-1 expression in human peripheral blood CD8+ T cells (flow cytometry); format: cell-based; settings: breast cancer patients, 200 μM Kyn, 48 h
Method: Mononuclear cells were isolated and obtained from the peripheral whole blood of breast cancer patients by using Ficoll. CD8^+ T cells were sorted by magnetic beads, and seeded into a U-shaped bottom 96-well plate (100000 cells/well) while anti-CD3/CD28 magnetic beads were added to activate T cells. The culture medium was RPMI-1640 added with 10 ng/mL human IL-2. Cells were grouped and treated with drugs as follows.
Control group 1 (PBS): culture medium+PBS;
Experimental group 2 (Kyn): culture medium+200 μM Kyn;
Experimental group 3 (Kyn+SAR): culture medium+200 μM Kyn+10 mM SAR; Experimental group 4 (Kyn+BCH): culture medium+200 μM Kyn+100 μM BCH;
The expression level of PD-1 in CD8^+ T cells of each group was determined by flow cytometry after 48 h.

[8] = tested on: PD-1; experiment: PD-1 expression in human CD8+ T cells treated with Kyn and AhR inhibitors (flow cytometry); format: cell-based; settings: resting and activated CD8+ T cells from healthy donors, breast and lung cancer patients; Kyn 200 μM, 48 h
Method: (4) CD8^+ T cells isolated from PBMCs of patients with breast cancer or lung cancer were activated by anti-CD3/CD28 beads and treated with PBS, Kyn (200 μM) or Kyn/DMF (20 μM) for 48 h. The expression of PD-1 was determined by flow cytometry.
(5) CD8^+ T cells isolated from patients with breast cancer or lung cancer were treated with DMF (20 μM) for 48 h. PD-1 expression was determined by flow cytometry (n=6).

[9] = tested on: PAT4 and SLC7A8; experiment: Effect of Kyn on the expression of PAT4 and SLC7A8 in OT-1 CD8+ T cells (fluorescence quantitative PCR); format: cell-based; settings: activated mouse CD8+ T cells, 200 μM Kyn, 48 h
Method: Splenic CD8^+ T cells of OT-1 mice were obtained by magnetic bead sorting, and seeded into a 24-well plate (1 million cells/well) while anti-CD3/CD28 magnetic beads were added to activate T cells. The culture medium was RPMI-1640 added with 10 ng/mL mouse IL-2 and […] β-mercaptoethanol. Cells were grouped and treated with drugs as follows. Control group 1 (PBS): culture medium+PBS; Experimental group 2 (Kyn): culture medium+200 μM Kyn; RNA was collected from cells in each group after 48 h, and the expression of PAT4 and SLC7A8 was determined by fluorescence quantitative PCR.

[10] = tested on: PD-1; experiment: OVA-B16 melanoma-bearing mice with adoptively transferred CFSE-labeled OT-1 T cells, PD-1 expression; format: in vivo, mouse; settings: Kyn 50 μg/mouse i.p. once every two days, three times; Day 7
Method: (6) C57BL/6 mice with 5×5 mm OVA-B16 melanoma were adoptively transferred with CFSE-labeled OT-1 CD8^+ T cells (4×10^6 cells/mouse, once every three days) on three occasions. At the same time, some mice were i.p. injected with Kyn (50 μg/mouse, once every two days) for three times. On Day 7 after transferring, CFSE^+CD8^+ T cells were isolated from tumor for flow cytometric analysis of PD-1 expression.
(8) The experimental steps were the same as those of step (7), except that C57BL/6 mice were treated with Kyn, DMF (5 μg/mouse, o.t., twice every day) or Kyn+DMF for 6 days. CFSE^+CD8^+ T cells from tumor were isolated for flow cytometric analysis of PD-1 expression.

For `Nc1ccccc1C(=O)CC(N)C(=O)O` (stereo not drawn) [Kyn, kynurenine], the “PD-1 expression in peritoneal, splenic or lymph node CD8+ T cells” value [1] was “promoted”, the “expression of IFN-γ and TNF-α” value [1] was “inhibited” and the AhR localisation [2] was “promoted the translocation of AhR from the cytosol to nucleus”. The PD-1 expression ([3]; AhR-/- mice, Kyn for 5 days) was “failed to induce”, the “PD-1 expression in CD8+ T cells of spleen and lymph nodes” value ([3]; WT C57BL/6 mice, Kyn 50 μg i.p. once per day, 5 days) was “upregulated PD-1 expression” and the “expression of Kyn transporters SLC7A8 and PAT4” value ([3]; WT C57BL/6 mice, Kyn 50 μg i.p., 5 days) was “upregulated”. For the same compound, the “AhR localisation in CD8+ T cells” value ([3]; WT C57BL/6 mice, Kyn 50 μg i.p., 5 days, spleen) was “translocated to the nucleus”, the AhR localisation ([4]; activated T cells, 200 μM Kyn) was “translocation of cytoplasmic AhR to the nucleus” and the AhR expression ([4]; resting T cells, Kyn 200 μM, further increased in activated T cells) was “upregulated”. The “expression of PAT4 and SLC7A8” value [5] was “significantly upregulating”, the “essential amino acids in the cytosol” value [6] was “had no effect on most of the essential amino acids except some decrease of the intensity of threonine” and the “PD-1 expression in peripheral blood CD8+ T cells” value [7] was “significant increased”. The PD-1 expression [8] was “upregulated”, the “expression of PAT4 and SLC7A8” value [9] was “significantly upregulating” and the “PD-1 expression in tumor-infiltrating CFSE+ T cells” value [10] was “much higher levels of PD-1 expression”.
